Measurements published in US8552176B2 (priority 2010, dated 2013).

Tests used:
Test in all cases: cells
Type in all cases: cell-based, human
[1] = test system: SKOV3; conditions: read-out: GI50 SKOV3 ovary
[2] = test system: NCI-H460; conditions: read-out: GI50 NCI-H460 lung
[3] = test system: MCF7; conditions: read-out: GI50 MCF7 breast
[4] = test system: Hep3b; conditions: read-out: GI50 Hep3b liver
[5] = test system: H1299; conditions: read-out: GI50 H1299 lung (−p53)
[6] = test system: DU-145; conditions: read-out: GI50 DU-145 prostate
[7] = test system: A549; conditions: read-out: GI50 A549 lung (+p53)
[8] = test system: SF-268; conditions: read-out: GI50 SF-268 CNS
[9] = test system: HT29; conditions: read-out: GI50 HT29 colorectal
[10] = test system: HCT-15; conditions: read-out: GI50 HCT-15 colorectal

Row | Compound | GI50 [1] | GI50 [2] | GI50 [3] | GI50 [4] | GI50 [5] | GI50 [6] | GI50 [7] | GI50 [8] | GI50 [9] | GI50 [10]
1 | N-Hydroxy-4-(4-N′,N′-bis(2-chloroethyl)amino)phenylbutylamino-D-threoside nitrone [Compound 70] | 2.6 ± 0.1 µM | 3.8 ± 0.1 µM | 2 ± 0.1 µM | 1.7 ± 0.1 µM | 1.07 ± 0.08 µM | 3.6 ± 0.2 µM | 3 ± 0.2 µM | 1.2 ± 0.1 µM | 3.2 ± 0.1 µM | 2.5 ± 0.1 µM
2 | CON(CCCCc1ccc(N(CCCl)CCCl)cc1)C1OC(C)C(O)C(O)C1O (mixture of isomers) [Compound 21] | 1.8 ± 0.1 µM | 5.4 ± 0.3 µM | 0.78 ± 0.09 µM | 3 ± 0.1 µM | 1.2 ± 0.1 µM | 3.8 ± 0.1 µM | 2.2 ± 0.1 µM | 2 ± 0.1 µM | 2.3 ± 0.1 µM | 1.4 ± 0.1 µM
3 | COC1C(O)C(CO)OC(N(CCCCc2ccc(N(CCCl)CCCl)cc2)OC)C1O (stereo not shown) [Compound 33] | 2.4 ± 0.1 µM | 7.8 ± 0.08 µM | 8.3 ± 0.1 µM | 4.2 ± 0.2 µM | 1.7 ± 0.1 µM | 5.1 ± 0.1 µM | 3.6 ± 0.2 µM | 2.8 ± 0.1 µM | 2.7 ± 0.2 µM | 1.1 ± 0.1 µM
4 | CON(CCCCc1ccc(N(CCCl)CCCl)cc1)C1OC(C(=O)O)C(O)C(O)C1O (stereo not shown) [Compound 38] | 3.1 ± 0.1 µM | 9.1 ± 0.9 µM | 6 ± 0.1 µM | 4.9 ± 0.3 µM | 0.99 ± 0.03 µM | 3.9 ± 0.1 µM | 5.5 ± 0.3 µM | 1.6 ± 0.1 µM | 3.2 ± 0.3 µM | 1.03 ± 0.05 µM
5 | CON(CCCCc1ccc(N(CCCl)CCCl)cc1)C1OCC(O)C(O)C1O (stereo not shown) [Compound 63] | 2.4 ± 0.1 µM | 2.9 ± 0.3 µM | 1.2 ± 0.2 µM | 1.6 ± 0.1 µM | 0.93 ± 0.03 µM | 2.2 ± 0.1 µM | 2.2 ± 0.1 µM | 1.5 ± 0.1 µM | 1.5 ± 0.1 µM | 0.83 ± 0.04 µM
6 | CON(CCCCc1ccc(N(CCCl)CCCl)cc1)C1OC(CO)C(O)C(O)C1NC(C)=O (mixture of isomers) [Compound 27] | 11 ± 1 µM | 42 ± 3 µM | 4.4 ± 0.6 µM | 11.8 ± 0.4 µM | 3.8 ± 0.4 µM | 16.7 ± 0.7 µM | 22 ± 1 µM | 4.2 ± 0.4 µM | 12 ± 1 µM | 19.1 ± 0.8 µM
7 | CON(CCCCc1ccc(N(CCCl)CCCl)cc1)C1OC(COCc2ccccc2)C(OCc2ccccc2)C1OCc1ccccc1 (stereo not shown) [Compound 16] | > 100 µM | > 100 µM | 82 ± 1 µM | > 100 µM | > 100 µM | > 100 µM | > 100 µM | 80 ± 5 µM | 47 ± 1 µM | 64 ± 8 µM
8 | CON(CCCCc1ccc(N(CCCl)CCCl)cc1)C1OC(CO)C(OC2OC(CO)C(O)C(O)C2O)C(O)C1O (mixture of isomers) [Compound 17] | 1.8 ± 0.1 µM | 3.8 ± 0.3 µM | 1.7 ± 0.1 µM | 1.2 ± 0.1 µM | 1.8 ± 0.1 µM | 1.8 ± 0.1 µM | 1.6 ± 0.1 µM | 1.5 ± 0.1 µM | 1.9 ± 0.1 µM | 2.3 ± 0.1 µM
9 | CON(CCCCc1ccc(N(CCCl)CCCl)cc1)C1OC(C)C(O)C(O)C1O (mixture of isomers) [Compound 20] | 1.7 ± 0.1 µM | 5.9 ± 0.3 µM | 3 ± 0.2 µM | 2.6 ± 0.2 µM | 3.5 ± 0.2 µM | 4.1 ± 0.9 µM | 9.6 ± 0.4 µM | 1.7 ± 0.1 µM | 6.7 ± 0.3 µM | 0.82 ± 0.07 µM
10 | CON(CCCCc1ccc(N(CCCl)CCCl)cc1)C1CC(O)C(O)CO1 (mixture of isomers) [Compound 56] | 2.2 ± 0.1 µM | 5.2 ± 0.6 µM | 1.3 ± 0.2 µM | 2.5 ± 0.1 µM | 3.9 ± 0.5 µM | 3.3 ± 0.1 µM | 2.5 ± 0.1 µM | 2 ± 0.1 µM | 2.3 ± 0.1 µM | 2.2 ± 0.1 µM
11 | CON(CCCCc1ccc(N(CCCl)CCCl)cc1)C1OC(CO)C(O)C(O)C1O (mixture of isomers) [Compound 13] | 2.5 ± 0.1 µM | 7.9 ± 0.5 µM | 7.9 ± 0.8 µM | 2 ± 0.1 µM | 1.3 ± 0.1 µM | 4.1 ± 0.1 µM | 3.1 ± 0.2 µM | 2.3 ± 0.1 µM | 2.1 ± 0.2 µM | 1.4 ± 0.1 µM
12 | CON(CCCCc1ccc(N(CCCl)CCCl)cc1)C1CC(O)C(O)C(CO)O1 (mixture of isomers) [Compound 25] | 2.4 ± 0.1 µM | 6.6 ± 0.4 µM | 1.04 ± 0.08 µM | 3.3 ± 0.1 µM | 1.5 ± 0.1 µM | 5 ± 0.7 µM | 3.2 ± 0.2 µM | 2.2 ± 0.1 µM | 3.5 ± 0.7 µM | 1.6 ± 0.1 µM
13 | CON(CCCCc1ccc(N(CCCl)CCCl)cc1)C1OC(CO)C(O)C(O)C1NC(C)=O (mixture of isomers) [Compound 45] | 10.1 ± 0.9 µM | 33.3 ± 0.5 µM | 9 ± 1 µM | 9.8 ± 0.7 µM | 2.7 ± 0.2 µM | 16 ± 1 µM | 21 ± 2 µM | 3.4 ± 0.2 µM | 8.7 ± 0.7 µM | 22 ± 2 µM
